Measurements published in the supplement of paper PMC10307832.

Key:
Assay in all cases: relative viability (nuclei count vs DMSO), 5 days (fraction); higher = more cells survive
[1] = compound: CC1=CC(=CC=C1)NC2=NC(=CS2)C3=CC=NC=C3 + CC(=O)Nc1cccc(-n2c(=O)n(C3CC3)c(=O)c3c(Nc4ccc(I)cc4F)n(C)c(=O)c(C)c32)c1 [Trametinib] (partner 0.02 µM)
In short: (§1)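 Lung cancer cell lines in 1536-well plates were dosed by pin tool the day after seeding, either with one drug alone or with a fixed anchor-drug dose plus five library-drug doses (not always all listed) in √10 steps. After 5 days, cells were fixed and their nuclei stained in one step (final 0.05% Triton X-100, 1% formaldehyde, 1 ug/ml Hoechst), then counted on 4× images. Relative viability is the nuclei count in treated wells divided by that in vehicle wells. Values are medians of duplicate plates.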

[2] = compound: CC1=CC(=CC=C1)NC2=NC(=CS2)C3=CC=NC=C3 + N=C(N)NC(=N)NCCc1ccccc1 [Phenformin] (partner 250 µM)
In short: as §1

[3] = compound: CC1=CC(=CC=C1)NC2=NC(=CS2)C3=CC=NC=C3 + Nc1ncn([C@H]2C[C@H](O)[C@@H](CO)O2)c(=O)n1 [Decitabine] (partner 2 µM)
In short: as §1

[4] = compound: Cc1ccc(NC(=O)c2ccc(CN3CCN(C)CC3)cc2)cc1Nc1nc(-c2cccnc2)cs1 [Masitinib] + CC1(C)CCC(c2ccc(Cl)cc2)=C(CN2CCN(c3ccc(C(=O)NS(=O)(=O)c4ccc(N[C@H](CCN5CCOCC5)CSc5ccccc5)c(S(=O)(=O)C(F)(F)F)c4)cc3)CC2)C1 [Navitoclax] (partner 0.5 µM)
In short: as §1

For HCC-827, the relative viability ([1]; first compound 0.08 µM) was 0.497, the relative viability ([1]; first compound 0.253 µM) was 0.529 and the relative viability ([1]; first compound 0.8 µM) was 0.564. The relative viability ([1]; first compound 2.53 µM) was 0.542, the relative viability ([1]; first compound 8 µM) was 0.53 and the relative viability ([2]; first compound 0.08 µM) was 0.416. For the same cell line, the relative viability ([2]; first compound 0.253 µM) was 0.383, the relative viability ([2]; first compound 0.8 µM) was 0.447 and the relative viability ([2]; first compound 2.53 µM) was 0.445. It also gave a relative viability ([2]; first compound 8 µM) of 0.38, a relative viability ([3]; first compound 0.08 µM) of 0.298 and a relative viability ([3]; first compound 0.253 µM) of 0.317. For the same cell line, the relative viability ([3]; first compound 0.8 µM) was 0.352, the relative viability ([3]; first compound 2.53 µM) was 0.287 and the relative viability ([3]; first compound 8 µM) was 0.328. For the same cell line, the relative viability ([4]; first compound 0.01 µM) was 0.924, the relative viability ([4]; first compound 0.03162 µM) was 0.996 and the relative viability ([4]; first compound 0.1 µM) was 1.01. It also gave a relative viability ([4]; first compound 0.3162 µM) of 0.942 and a relative viability ([4]; first compound 1 µM) of 1.01.
For SW 1573, the relative viability ([1]; first compound 0.08 µM) was 0.596, the relative viability ([1]; first compound 0.253 µM) was 0.585 and the relative viability ([1]; first compound 0.8 µM) was 0.741. It also gave a relative viability ([1]; first compound 2.53 µM) of 0.696, a relative viability ([1]; first compound 8 µM) of 0.48 and a relative viability ([2]; first compound 0.08 µM) of 0.316. For the same cell line, the relative viability ([2]; first compound 0.253 µM) was 0.36, the relative viability ([2]; first compound 0.8 µM) was 0.352 and the relative viability ([2]; first compound 2.53 µM) was 0.389. The relative viability ([2]; first compound 8 µM) was 0.399, the relative viability ([3]; first compound 0.08 µM) was 0.48 and the relative viability ([3]; first compound 0.253 µM) was 0.409. It also gave a relative viability ([3]; first compound 0.8 µM) of 0.441, a relative viability ([3]; first compound 2.53 µM) of 0.454 and a relative viability ([3]; first compound 8 µM) of 0.485. For the same cell line, the relative viability ([4]; first compound 0.01 µM) was 0.975, the relative viability ([4]; first compound 0.03162 µM) was 1.05 and the relative viability ([4]; first compound 0.1 µM) was 1.09. For the same cell line, the relative viability ([4]; first compound 0.3162 µM) was 1.19 and the relative viability ([4]; first compound 1 µM) was 0.972.
NCI-H1993 gave a relative viability ([1]; first compound 0.08 µM) of 0.514, a relative viability ([1]; first compound 0.253 µM) of 0.517 and a relative viability ([1]; first compound 0.8 µM) of 0.596. The relative viability ([1]; first compound 2.53 µM) was 0.348, the relative viability ([1]; first compound 8 µM) was 0.461 and the relative viability ([2]; first compound 0.08 µM) was 0.445. It also gave a relative viability ([2]; first compound 0.253 µM) of 0.601, a relative viability ([2]; first compound 0.8 µM) of 0.547 and a relative viability ([2]; first compound 2.53 µM) of 0.529. The relative viability ([2]; first compound 8 µM) was 0.48, the relative viability ([3]; first compound 0.08 µM) was 0.565 and the relative viability ([3]; first compound 0.253 µM) was 0.561. It also gave a relative viability ([3]; first compound 0.8 µM) of 0.483, a relative viability ([3]; first compound 2.53 µM) of 0.485 and a relative viability ([3]; first compound 8 µM) of 0.502. For the same cell line, the relative viability ([4]; first compound 0.01 µM) was 0.921, the relative viability ([4]; first compound 0.1 µM) was 0.944 and the relative viability ([4]; first compound 0.3162 µM) was 0.651. For the same cell line, the relative viability ([4]; first compound 1 µM) was 0.885.
NCI-H1734 gave a relative viability ([1]; first compound 0.08 µM) of 0.679, a relative viability ([1]; first compound 0.253 µM) of 0.712 and a relative viability ([1]; first compound 0.8 µM) of 0.677. The relative viability ([1]; first compound 2.53 µM) was 0.681, the relative viability ([1]; first compound 8 µM) was 0.614 and the relative viability ([2]; first compound 0.08 µM) was 0.401. The relative viability ([2]; first compound 0.253 µM) was 0.353, the relative viability ([2]; first compound 0.8 µM) was 0.399 and the relative viability ([2]; first compound 2.53 µM) was 0.456. For the same cell line, the relative viability ([2]; first compound 8 µM) was 0.38, the relative viability ([3]; first compound 0.08 µM) was 0.446 and the relative viability ([3]; first compound 0.253 µM) was 0.417. For the same cell line, the relative viability ([3]; first compound 0.8 µM) was 0.457, the relative viability ([3]; first compound 2.53 µM) was 0.507 and the relative viability ([3]; first compound 8 µM) was 0.463. The relative viability ([4]; first compound 0.01 µM) was 0.861, the relative viability ([4]; first compound 0.03162 µM) was 0.779 and the relative viability ([4]; first compound 0.1 µM) was 1. For the same cell line, the relative viability ([4]; first compound 0.3162 µM) was 0.933 and the relative viability ([4]; first compound 1 µM) was 0.842.
With NCI-H1666 the relative viability ([1]; first compound 0.08 µM) was 0.578, the relative viability ([1]; first compound 0.253 µM) was 0.728 and the relative viability ([1]; first compound 0.8 µM) was 0.684. For the same cell line, the relative viability ([1]; first compound 2.53 µM) was 0.523, the relative viability ([1]; first compound 8 µM) was 0.6 and the relative viability ([2]; first compound 0.08 µM) was 0.526. It also gave a relative viability ([2]; first compound 0.253 µM) of 0.489, a relative viability ([2]; first compound 0.8 µM) of 0.547 and a relative viability ([2]; first compound 2.53 µM) of 0.513. The relative viability ([2]; first compound 8 µM) was 0.451, the relative viability ([3]; first compound 0.08 µM) was 0.682 and the relative viability ([3]; first compound 0.253 µM) was 0.691. It also gave a relative viability ([3]; first compound 0.8 µM) of 0.67, a relative viability ([3]; first compound 2.53 µM) of 0.472 and a relative viability ([3]; first compound 8 µM) of 0.636. For the same cell line, the relative viability ([4]; first compound 0.01 µM) was 0.933, the relative viability ([4]; first compound 0.03162 µM) was 0.778 and the relative viability ([4]; first compound 0.1 µM) was 0.915. It also gave a relative viability ([4]; first compound 0.3162 µM) of 0.782 and a relative viability ([4]; first compound 1 µM) of 0.88.
NCI-H460 showed a relative viability ([1]; first compound 0.08 µM) of 0.0961, a relative viability ([1]; first compound 0.253 µM) of 0.0855 and a relative viability ([1]; first compound 0.8 µM) of 0.0743. For the same cell line, the relative viability ([1]; first compound 2.53 µM) was 0.0913, the relative viability ([1]; first compound 8 µM) was 0.111 and the relative viability ([2]; first compound 0.08 µM) was 0.478. The relative viability ([2]; first compound 0.253 µM) was 0.499, the relative viability ([2]; first compound 0.8 µM) was 0.511 and the relative viability ([2]; first compound 2.53 µM) was 0.479. The relative viability ([2]; first compound 8 µM) was 0.438, the relative viability ([3]; first compound 0.08 µM) was 0.445 and the relative viability ([3]; first compound 0.253 µM) was 0.432. For the same cell line, the relative viability ([3]; first compound 0.8 µM) was 0.464, the relative viability ([3]; first compound 2.53 µM) was 0.405 and the relative viability ([3]; first compound 8 µM) was 0.402. For the same cell line, the relative viability ([4]; first compound 0.01 µM) was 1.22, the relative viability ([4]; first compound 0.03162 µM) was 0.834 and the relative viability ([4]; first compound 0.1 µM) was 1.27. For the same cell line, the relative viability ([4]; first compound 0.3162 µM) was 1.33 and the relative viability ([4]; first compound 1 µM) was 1.26.
